The source of these data is ChEMBL document CHEMBL3886943, “C2-azaspiro iminothiazine dioxides as BACE inhibitors, compositions, and their use” (2016).

The structures appear in SMILES notation.

The target of one experiment is T1, Beta-secretase 2 (Homo sapiens, UniProt Q9Y5Z0).
T1 sequence (Q9Y5Z0 whole entry): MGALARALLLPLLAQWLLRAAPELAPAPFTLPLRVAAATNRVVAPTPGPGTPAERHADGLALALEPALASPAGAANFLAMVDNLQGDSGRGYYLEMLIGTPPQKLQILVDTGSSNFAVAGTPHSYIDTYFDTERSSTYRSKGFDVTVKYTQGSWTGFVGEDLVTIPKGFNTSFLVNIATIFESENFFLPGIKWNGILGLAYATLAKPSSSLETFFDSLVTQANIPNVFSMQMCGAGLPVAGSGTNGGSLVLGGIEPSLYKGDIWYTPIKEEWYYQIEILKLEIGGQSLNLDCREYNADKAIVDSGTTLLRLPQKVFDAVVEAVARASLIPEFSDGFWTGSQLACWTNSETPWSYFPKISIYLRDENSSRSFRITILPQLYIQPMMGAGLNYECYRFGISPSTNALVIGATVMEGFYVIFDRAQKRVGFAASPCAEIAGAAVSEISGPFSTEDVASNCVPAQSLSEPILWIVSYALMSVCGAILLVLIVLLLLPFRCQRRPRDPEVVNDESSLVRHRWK
The experiment in a line: DMSO is present at 5% final concentration in the assay. Following laser excitation of sample wells at 320 nm, the fluorescence signal at 620 nm is collected for 400 ms following a 50 us delay on a RUBYstar HTRF plate reader (BMG Labtechnologies). Raw RFU data is normalized to maximum (1.0 nM BACE/DMSO) and minimum (no enzyme/DMSO) RFU values. […] The Ki values are calculated from the IC50 using the Cheng-Prusoff equation.

The target of the next experiment is Beta-secretase 1 (Homo sapiens, UniProt P56817). The experiment in a line: This assay monitors the increase of 620 nm fluorescence that resulted from BACE1 cleavage of an APPswedish APPswe mutant peptide FRET substrate (QSY7-[…]-Europium-amide). This substrate contains an N-terminal QSY7 moiety that serves as a quencher of the C-terminal Europium fluorophore (620 nm Em). […] Reactions are initiated by addition of 10 ul of 600 nM QSY7-APPswe-Eu substrate (200 nM final) to give a final reaction volume of 30 ul in a 384 well Nunc HTRF plate. The reactions are incubated at 30° C. for 1.5 hours. The 620 nm fluorescence is then read on a Rubystar HTRF plate reader (BMG Labtechnologies) using a 50 millisecond delay followed by a 400 millisecond acquisition time window. Inhibitor IC50 values are derived from non-linear regression analysis of concentration response curves.
Chain of Beta-secretase 1 (P56817 whole entry): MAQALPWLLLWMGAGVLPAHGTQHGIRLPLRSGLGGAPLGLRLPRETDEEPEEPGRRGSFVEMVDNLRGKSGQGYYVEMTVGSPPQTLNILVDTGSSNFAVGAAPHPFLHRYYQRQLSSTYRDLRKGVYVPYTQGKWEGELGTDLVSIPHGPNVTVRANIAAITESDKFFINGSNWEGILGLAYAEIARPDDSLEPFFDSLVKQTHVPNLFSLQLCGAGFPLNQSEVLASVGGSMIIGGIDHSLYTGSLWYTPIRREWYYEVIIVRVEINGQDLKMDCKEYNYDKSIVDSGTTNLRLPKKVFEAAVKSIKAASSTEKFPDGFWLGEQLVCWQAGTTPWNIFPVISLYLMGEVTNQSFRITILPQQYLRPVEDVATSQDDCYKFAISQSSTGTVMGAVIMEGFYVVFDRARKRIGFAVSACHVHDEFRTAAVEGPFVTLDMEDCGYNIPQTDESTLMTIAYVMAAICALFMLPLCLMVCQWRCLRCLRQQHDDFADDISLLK

`CN1CCC2(CC1)C(=N)N[C@](C)(c1cc(NC(=O)C(F)F)ccc1F)CS2(=O)=O`: the Ki at Beta-secretase 2 is 210 nM; at Beta-secretase 1 it was 1710 nM.
